Laboratory results published in PubChem BioAssay (NCI).
Values joined by “and” are separate entries in the source; they are usually repeats but may differ in a detail not shown here. Identical values can stand only once.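 Step 1: Grow cells in 96-well plates. Step 2: Expose to compound for 48 hours at 5 concentrations. Step 3: Interpolate endpoints linearly; if unreached, use highest concentration. The concentration for 50% growth inhibition is given as GI50. TGI is the concentration that stops growth completely.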

Experiments:
Assay in all cases: NCI anticancer screen, dose series, 48 h
[1] = tested on: MDA-MB-231 breast
[2] = tested on: HS 578T breast
[3] = tested on: XF 498 CNS
[4] = tested on: RXF-631 renal
[5] = tested on: LXFL 529 NSCLC
[6] = tested on: MDA-N

Row | SMILES | GI50 [1] | TGI [1] | GI50 [2] | TGI [2] | TGI [3] | TGI [5] | other results
1 | CCOc1ccccc1N=Nc1c(C)[nH]n(-c2nc(-c3ccccc3)cs2)c1=O | 44 µM | > 100 µM | 29.2 µM | > 95.1 µM | – | – | –
2 | Cc1cc(Cl)ccc1NC(=O)CC/C(CC(=O)C(C)C)=N\NC(=O)C[n+]1ccccc1 | – | – | – | – | > 100 µM | > 100 µM | TGI [4]: > 100 µM
3 | C[CH2][Sn]([CH2]C)([O]C(=O)C(OC(C)=O)c1ccccc1)[O]C(=O)C(OC(C)=O)c1ccccc1 (configuration not stated) | 26.6 µM | 77.8 µM | 40 µM | > 100 µM | – | – | GI50 [6]: 50 µM; TGI [6]: > 100 µM
4 | O=C(NC[C@H](O)CO)c1ccncc1Nc1ccc(I)cc1F | 0.154 µM and 0.348 µM | > 10 µM and 46.7 µM | > 64.1 µM | > 100 µM | – | – | –
5 | C=C1c2[nH]c3c([N+](=O)[O-])c(OC)ccc3c2CCN1C(C)=O | – | – | – | – | – | > 100 µM | –
6 | O=[N+]([O-])c1cccc([As]=[As]c2cccc([N+](=O)[O-])c2)c1 (configuration not stated) | 0.0776 µM | 0.212 µM | 0.098 µM | 0.498 µM | – | – | –
7 | C=C(CO[Si](C)(C)C(C)(C)C)C(C)=O | – | 46.6 µM | – | > 84.4 µM | – | – | TGI [6]: 32.3 µM
8 | O=C(Nc1ccc(Cl)cc1)Nc1ccc(Nc2nncc3ccccc23)cc1 | 3.4 µM | 15.9 µM | 3.83 µM | 27.7 µM | – | – | –
9 | CN(C(=O)c1ccco1)C(=S)N1CCN(c2ccccc2)CC1 | – | – | – | – | > 100 µM | > 100 µM | –
10 | COC(=O)C1=CC2C(=O)OC1CC2C#N (configuration not stated) | – | – | – | – | > 100 µM | > 100 µM | –
11 | CC#CC(=O)SCCNC(=O)CC | – | > 10 µM | – | > 10 µM | – | – | TGI [6]: > 10 µM
12 | [N-]=[N+]=NC(CI)c1cn([C@H]2C[C@H](O)[C@@H](CO)O2)c(=O)[nH]c1=O (some centres not stated) | – | – | – | – | > 100 µM | > 100 µM | –
13 | CC(=O)C1C(=O)C(=O)N(c2ccccc2C(C)C)C1=O (configuration not stated) | – | – | – | – | > 100 µM | > 100 µM | –
14 | COc1ccc(/C=C\c2cc(OC)c(OC)c(OC)c2)cc1OC | – | > 100 µM | – | 68 µM | 0.401 µM | 3.14 µM | TGI [4]: 40.4 µM
15 | C/C=C(/C)C(=O)O[C@H](C[C@@H](C)[C@H]1CC(c2ccoc2)OC1=O)[C@@]1(C)C(=O)CCC2O[C@]21C (some centres not stated) | – | > 100 µM | – | > 100 µM | – | – | TGI [6]: > 100 µM
16 | COc1c(Cl)cc(NC(=S)C#N)cc1Cl | – | 36.1 µM | – | – | – | 85.8 µM | TGI [6]: 69.1 µM; TGI [4]: 51.3 µM
17 | Nc1ncnc2c1nnn2C1CCC(CP(=O)(O)O)C1 (configuration not stated) | – | > 100 µM | – | – | – | – | TGI [6]: > 100 µM
18 | CN(C)c1ccc2c(c1)OC(N)=C(C#N)C2c1ccc2c(c1)CCO2 (configuration not stated) | 0.419 µM | 28.6 µM | 0.235 µM | > 100 µM | – | – | –
19 | O=C1CC(S(=O)(=O)O)C=C1Nc1cccc(Cl)c1 (configuration not stated) | – | – | – | – | > 100 µM | > 100 µM | –
20 | Cc1ccc(CNc2c3ccccc3nc3cc(NC(=O)CCN4CCCC4)ccc23)cc1 | 0.602 µM | 1.98 µM | – | – | – | – | –

Row | SMILES | GI50 [1] | TGI [1] | GI50 [2] | TGI [2] | TGI [3] | TGI [5] | other results
21 | CN1c2ccccc2N(C)C23N(C)c4ccccc4N(C)C12N(C)c1ccccc1N3C (configuration not stated) | – | – | – | – | > 100 µM | – | TGI [4]: > 100 µM
22 | CCc1ccc(NC(=O)COC(=O)c2cc([N+](=O)[O-])ccc2Sc2nnnn2C)cc1 | 23.6 µM | > 100 µM | 2.65 µM | 9.36 µM | – | – | –
23 | Clc1nc(Cl)c2ncn(C/C=C/COc3cccc(OC/C=C/Cn4cnc5c(Cl)nc(Cl)nc54)c3)c2n1 | 12.7 µM | 25.3 µM | 39.4 µM | > 100 µM | – | – | –
24 | COc1ccc2ccccc2c1C1OC(=O)c2ccccc21 (configuration not stated) | – | – | – | – | – | – | TGI [4]: > 100 µM
25 | CCCOC(=O)N1CCN(/[N+]([O-])=N/Oc2ccc([N+](=O)[O-])cc2[N+](=O)[O-])CC1 | 2.29 µM | 4.83 µM | 4.95 µM | 50.9 µM | – | – | –
26 | Nc1nc(Nc2ccc(C3CCC(N4CCOCC4)CC3)cc2)nn1-c1ccccn1 (configuration not stated) | 5.34 µM | > 100 µM | 1.64 µM | 7.41 µM | – | – | –
27 | O=C(NN1C(=O)CSC12CCCC2)c1[nH]c2ccc(Br)cc2c1-c1ccccc1 | 32.5 µM | > 100 µM | 96.8 µM | > 100 µM | – | – | –
28 | O=c1nc2oc3ccc4ccccc4c3cc-2s1 | 12.4 µM | > 100 µM | 0.528 µM | > 61.8 µM | – | – | –
29 | O=C(Nc1ccc(Cl)c(Cl)c1)O/N=C\c1c(Cl)ccc([N+](=O)[O-])c1Cl | 1.56 µM | 3.41 µM | 3.35 µM | 38.7 µM | – | – | –
30 | COC(=O)C1=C(c2cc(OC)c(OC)c(OC)c2)OC(c2ccc(OC)c(OC)c2)C1 (configuration not stated) | – | – | – | – | > 100 µM | > 100 µM | –
31 | CCCCN(CCCC)c1ccc(C(=N)c2ccc(N(CCCC)CCCC)cc2)cc1 | 0.759 µM | 2.06 µM | 0.539 µM | 1.58 µM | – | – | –
32 | O=CC1CCCc2ccccc21 (configuration not stated) | – | – | – | – | > 100 µM | > 100 µM | –
33 | COc1cc(C2C(Cl)C(=O)N2NC(=O)c2ccc(N)cc2)ccc1O (configuration not stated) | – | – | – | – | 83.6 µM | 30.8 µM | –
34 | COc1ccc2c(c1)C(=O)c1c-2c(N(C)C)nc2ccccc12 | 77 µM | > 100 µM | > 100 µM | > 100 µM | – | – | –
35 | COc1ccc(C(C#N)Cc2cc(OC)c(OC)c(OC)c2)cc1 (configuration not stated) | – | – | – | – | – | > 100 µM | TGI [4]: > 100 µM
36 | NC(=O)c1c(NC(=O)c2ccc3c(c2)OCO3)sc2c1CCC(=O)C2 | 2.44 µM | 6.89 µM | – | – | – | – | –
37 | Cc1ccccc1NC(=O)C(=O)CC(=O)c1c(C)n([O-])c2ccccc2[n+]1=O | – | – | – | – | – | > 100 µM | –
38 | O=c1c2ccccc2nc(-c2ccccc2)n1NC1OC(CO)C(O)C(O)C1O (configuration not stated) | – | – | – | – | > 100 µM | > 100 µM | TGI [4]: > 100 µM
39 | Cc1ccc(C)c(NC(=O)CC/C(=N\NC(=O)c2c(O)ccc3ccccc23)C(C)C(=O)c2ccc(O)cc2)c1 (configuration not stated) | – | – | – | – | 91.9 µM | > 100 µM | –
